Data: patent US20100286092A1, “BETA-LACTAMASE INHIBITORS” (priority 2007, published 2010)

Assays:
Conditions in all cases: in the presence of a fixed amount (8 μg/mL) of Ceftazidime; CAMHB, 16-20 hours at 37° C.
[1] = test system: E. coli expressing the Class A ESBL SHV-5; assay type: cell-based
Excerpt: (§1) To determine the ability of test compounds to potentiate the inhibition of the growth of bacterial strains producing beta-lactamase enzymes, classic cell based screening assays were employed. Four bacteria strains producing beta-lactamase enzymes were used: K. pneumoniae expressing the Class A Extended Spectrum Beta-Lactamase (ESBL) CTX-M-15, E. coli expressing the Class A ESBL SHV-5, E. cloacae expressing the Class C P99+, and K. pneumoniae expressing the Class A carbapenemase KPC-2. In order to evaluate the ability of test compounds to inhibit beta-lactamase activity, Applicants used a modification of the broth microdilution assay. The assay was conducted in Cation Adjusted Mueller Hinton Broth (CAMHB, BD #212322, BD Diagnostic Systems, Sparks, Md.). Bacteria strains were grown for 3-5 hours in CAMBH broth. All four strains were grown in presence of 50 μg/mL ampicillin to ensure resistance is maintained. In the meantime, test compounds were diluted in DMSO to a 0.1 mg/mL stock. The compounds were added to a microtiter plate and were diluted in 2-fold serial dilutions in CAMHB in a final concentration range of 8 μg/mL to 0.015 μg/ml. An overlay of CAMHB containing a cephalosporin was added to the compounds at a final static concentration of 8 μg/ml. […] Each of these compound plates are made in quadruplicate, one for each bacteria strain. In addition to the titration of test compounds the MICs of a panel of cephalosporins is also tested to ensure the strains are behaving consistently from test to test. Once the test compound and cephalosporin are added the plates can be inoculated. Inocula are conducted according to CLSI broth microdilution method. After inoculation the plates are incubated for 16-20 hours at 37° C. then the Minimal Inhibitory Concentration (MIC) of the test compound is determined visually.
(§2) Using the methodology described above, examples of the current invention were evaluated for their ability to inhibit the growth of β-lactamase producing bacteria in the presence of a β-lactam antibiotic. […] NT=Not Tested.

[2] = test system: K. pneumoniae expressing the Class A Extended Spectrum Beta-Lactamase (ESBL) CTX-M-15; assay type: cell-based
Excerpt: as §1, §2

[3] = test system: E. cloacae expressing the Class C P99+; assay type: cell-based
Excerpt: as §1, §2

[4] = test system: K. pneumoniae expressing the Class A carbapenemase KPC-2
Excerpt: as §1, §2

Compound	MIC of example compound, E. coli SHV-5 + 8 μg/mL CAZ [1]	MIC of example compound, K. pneumoniae CTX-M-15 + 8 μg/mL CAZ [2]	MIC of example compound, E. cloacae P99 AmpC + 8 μg/mL CAZ [3]	MIC of example compound, K. pneumoniae KPC-2 + 8 μg/mL CAZ [4]
O=C(Cc1ccccc1)N[C@@H](Cc1cccc(C(=O)O)c1O)B(O)O [Example 10]	C (C represents an MIC of <1 μg/mL)	C (C represents an MIC of <1 μg/mL)	C (C represents an MIC of <1 μg/mL)	C (C represents an MIC of <1 μg/mL)
CCCCC(=O)N[C@@H](Cc1cccc(C(=O)O)c1O)B(O)O [Example 23, (1R)-1-(pentanoylamino)-2-(2-hydroxy-3-carboxyphenyl)ethyl-1-boronic acid]	C (C represents an MIC of <1 μg/mL)	C (C represents an MIC of <1 μg/mL)	C (C represents an MIC of <1 μg/mL)	C (C represents an MIC of <1 μg/mL)
Nc1nc(CC(=O)N[C@@H](Cc2cccc(C(=O)O)c2O)B(O)O)cs1.O=CO [Example 39, (1R)-1-(2-Amino-thiazol-4-yl)-acetylamino-1-(3-carboxy-2-hydroxy)benzyl-methylboronic acid formate salt]	C (C represents an MIC of <1 μg/mL)	C (C represents an MIC of <1 μg/mL)	C (C represents an MIC of <1 μg/mL)	C (C represents an MIC of <1 μg/mL)
COc1ccc(OC)c(CC(=O)N[C@@H](Cc2cccc(C(=O)O)c2O)B(O)O)c1 [Example 17, (1R)-1-(2-(2,5-dimethoxyphenyl)-acetylamino)-2-(2-hydroxy-3-carboxyphenyl)ethyl-1-boronic acid]	A (A represents an MIC>8 μg/mL)	C (C represents an MIC of <1 μg/mL)	C (C represents an MIC of <1 μg/mL)	–
NCC(=O)N[C@@H](Cc1cccc(C(=O)O)c1O)B(O)O.O=CO [Example 41, (1R)-1-(2-aminoacetylamino)-2-(2-hydroxy-3-carboxyphenyl)ethyl-1-boronic acid formate salt]	A (A represents an MIC>8 μg/mL)	A (A represents an MIC>8 μg/mL)	A (A represents an MIC>8 μg/mL)	C (C represents an MIC of <1 μg/mL)
O=C(Cc1cccs1)N[C@@H](Cc1cccc(C(=O)O)c1O)B(O)O [Example 1, (1R)-1-(2-thiophene-2-yl-acetylamino)-2-(2-hydroxy-3-carboxyphenyl)ethyl-1-boronic acid]	C (C represents an MIC of <1 μg/mL)	C (C represents an MIC of <1 μg/mL)	–	C (C represents an MIC of <1 μg/mL)
Cl.NCCOc1cccc(CC(=O)N[C@@H](Cc2cccc(C(=O)O)c2O)B(O)O)c1 [Example 4, (1R)-1-[3-(2-amino)-ethoxy-phenyl]acetylamino-1-(3-carboxy-2-hydroxy)benzyl-methylboronic acid hydrochloride]	C (C represents an MIC of <1 μg/mL)	C (C represents an MIC of <1 μg/mL)	C (C represents an MIC of <1 μg/mL)	C (C represents an MIC of <1 μg/mL)
COc1cccc(C(=O)N[C@@H](Cc2cccc(C(=O)O)c2O)B(O)O)c1 [Example 29, (1R)-1-(3-methoxybenzoylamino)-2-(2-hydroxy-3-carboxyphenyl)ethyl-1-boronic acid]	C (C represents an MIC of <1 μg/mL)	C (C represents an MIC of <1 μg/mL)	–	C (C represents an MIC of <1 μg/mL)
